Experimental data from patent US6949574B2 (Bristol-Myers Squibb Company, priority 2002, dated 2005).
pIC50: −log10 of the molar value. Where two headings read alike, the source gives them in different places.

Legend:
[1] = target: T1, human FAAH (Homo sapiens, UniProt O00519); test: FAAH activity in membrane homogenates of H4-FAAH cells, [3H]-anandamide hydrolysis; type: biochemical; details: H4-FAAH cell membranes, 10 μM anandamide, room temperature, one hour; read-out: IC50
T1 construct: expressed in transfected cells; host or cells: H4 cells (H4-FAAH, Geneticin-selected); crude membrane homogenates
T1 sequence (O00519 1-579): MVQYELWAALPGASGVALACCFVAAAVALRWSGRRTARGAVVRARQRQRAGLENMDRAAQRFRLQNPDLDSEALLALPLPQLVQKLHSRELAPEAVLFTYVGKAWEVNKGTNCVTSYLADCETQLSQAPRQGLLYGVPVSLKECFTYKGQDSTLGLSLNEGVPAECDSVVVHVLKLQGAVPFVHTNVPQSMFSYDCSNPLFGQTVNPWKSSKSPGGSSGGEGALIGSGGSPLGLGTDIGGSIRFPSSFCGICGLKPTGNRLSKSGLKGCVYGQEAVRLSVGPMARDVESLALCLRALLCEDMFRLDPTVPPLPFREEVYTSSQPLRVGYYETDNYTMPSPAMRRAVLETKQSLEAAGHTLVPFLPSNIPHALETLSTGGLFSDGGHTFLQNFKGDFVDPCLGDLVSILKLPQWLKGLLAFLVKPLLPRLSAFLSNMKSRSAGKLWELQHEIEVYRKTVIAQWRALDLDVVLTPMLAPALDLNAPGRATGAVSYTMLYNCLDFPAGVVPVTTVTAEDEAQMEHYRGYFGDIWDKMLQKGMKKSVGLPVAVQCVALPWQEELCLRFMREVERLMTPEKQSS
Summary of the method: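 Membranes (240 ng protein) from H4 cells expressing transfected human FAAH, incubated 1 h at room temperature in 125 mM Tris-Cl, pH 9.0, with 1.67 nM [3H]-anandamide plus 10 μM anandamide. Aqueous [3H]-ethanolamine counted after methanol/dichloroethane extraction; background set with 10 μM ATFMK. IC50 from four-parameter logistic fit.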

[2] = tested on: acute thermal pain behavior; type: in vivo, rat
From the text: FIG. 2 illustrates results from a rat Hargreaves test used for measuring acute thermal pain.
Data are mean+/−s.e.m. (n=8 per group). **p<0.01 Dunnett's Test, compared to vehicle control.

[3] = tested on: thermal hyperalgesia induced by paw carrageenan; test: Carrageenan-induced thermal hyperalgesia (chronic inflammatory pain); type: in vivo, rat
From the text: FIG. 1 illustrates results from a rat carrageen-induced thermal hypergesia model used for measuring chronic inflammatory pain.
The following in vivo pain models below utilized Example 5. […] Paw carrageenan injection (⋄, 0:45 hr, Carr) produced strong thermal hyperalgesia as evidenced by the short escape latencies seen in vehicle treated rats (⋄, 2:15 hr, Carr) as compared to the long baseline latencies (0:00 hr). […] Data are mean+/−s.e.m. (n=8 per group). *p<0.05, **p<0.01 Tukey's HSD, compared to vehicle.

[4] = tested on: carrageenan-induced edema; test: Paw edema model (inflammation-induced edema), plethysmometry; type: in vivo, rat
From the text: PAW EDEMA MODEL (Inflammation-induced Edema) The effects of Example 5 on carrageenan-induced edema were examined in a quantitative manner (plethysmometry).

Row | pIC50 [1] | Structure (SMILES) | other results
1 | < 6.30 | O=C(Nc1ccccc1Oc1ccccc1)O/N=C/c1ccc(F)cc1 [Example 89, 4-Fluorobenzaldehyde, O-[[(2-phenoxyphenyl)amino]carbonyl]oxime] | melting point: 141.5 to 142 °C
2 | 7.00 to 8.00 | O=C(Nc1ccccc1Oc1ccccc1)O/N=C/c1ccccc1 [Example 90, Benzaldehyde, O-[[(2-phenoxyphenyl)amino]carbonyl]oxime] | melting point: 141.5 to 142 °C
3 | < 6.30 | O=C(Nc1c[nH]c2ccccc12)O/N=C/c1ccc(F)cc1 [Example 144, 4-Fluorobenzaldehyde, O-[[(1H-indol-3-yl)amino]carbonyl]oxime] | 
4 | < 6.30 | O=C(Nc1c[nH]c2ccccc12)O/N=C/c1ccccc1 [Example 145, Benzaldehyde, O-[[(1H-indol-3-yl)amino]carbonyl]oxime] | 
5 | 6.30 to 7.00 | O=C(Nc1ccc(Oc2ccncc2)cc1)O/N=C/c1ccc(F)cc1 [Example 146, 4-Fluorobenzaldehyde, O-[[[4-[(4-pyridinyl)oxy]phenyl]amino]carbonyl]oxime] | 
6 | 7.00 to 8.00 | O=C(Nc1ccc(Oc2ccccn2)cc1)O/N=C/c1ccc(F)cc1 [Example 148, 4-Fluorobenzaldehyde, O-[[[4-[(2-pyridinyl)oxy]phenyl]amino]carbonyl]oxime] | 
7 | 7.00 to 8.00 | O=C(Nc1ccc(Oc2ccccn2)cc1)O/N=C/c1ccccc1 [Example 149, Benzaldehyde, O-[[[4-[(2-pyridinyl)oxy]phenyl]amino]carbonyl]oxime] | 
8 | > 8.00 | O=C(Nc1ccc(Oc2cccnc2)cc1)O/N=C/c1ccc(F)cc1 [Example 150, 4-Fluorobenzaldehyde, O-[[[4-[(3-pyridinyl)oxy]phenyl]amino]carbonyl]oxime] | 
9 | 6.30 to 7.00 | O=C(Nc1ccc2oc3ccccc3c2c1)O/N=C/c1cccnc1 [Example 152, 3-Pyridinecarboxaldehyde, O-[[(2-dibenzofuranyl)amino]carbonyl]oxime] | 
10 | 7.00 to 8.00 | O=C(Nc1ccc2oc3ccccc3c2c1)O/N=C/c1ccc(F)cc1 [Example 153, 4-Fluorobenzaldehyde, O-[[(2-dibenzofuranyl)amino]carbonyl]oxime] | 
11 | 7.00 to 8.00 | O=C(Nc1ccc2oc3ccccc3c2c1)O/N=C/c1ccccc1 [Example 154, Benzaldehyde, O-[[(2-dibenzofuranyl)amino]carbonyl]oxime] | 
12 |  | C[C@@H]1C[C@H]2[C@@H]3CCC4=CC(=O)C=C[C@]4(C)[C@@]3(F)[C@@H](O)C[C@]2(C)[C@@]1(O)C(=O)CO [dexamethasone, reference compound] | inhibition of swelling (combined total paw volume) ([4]; 1 mg/kg ip): 70%

Row | Structure (SMILES) | pIC50 [1] | other results
13 | CCCCOc1ccc(NC(=O)O/N=C/c2ccc(F)cc2)cc1 [Example 5, 4-Fluorobenzaldehyde, O-[[(4-butoxyphenyl)amino]carbonyl]oxime] | > 8.00 | side effects ([2]; 10 mg/kg i.v.): No significant side effects were observed; side effects ([2]; 30 mg/kg i.v.): strong sedation, reduced activity and splayed hindlimbs; acute thermal pain behavior ([2]; 10 & 30 mg/kg, i.v. hand infusion, 15 min post injection, did not persist beyond this time): significant reversal of acute thermal pain behavior; side effects ([3]; 40 mg/kg, i.p.): No side effects were observed; thermal escape latencies of drug treated animals ([3]; 40 mg/kg, i.p., at 2:15 hr): comparable to baseline; development of thermal hyperalgesia ([3]; 40 mg/kg, i.p., pretreatment before paw carrageenan): suppressed the development of thermal hyperalgesia; thermal escape responses after second injection ([3]; second injection 40 mg/kg i.p. at 3:00 hr, 3:00-4:00 hr): maintained thermal escape responses at basal levels for another hour; inhibition of swelling (combined total paw volume) ([4]; 20 mg/kg ip): no efficacy; inhibition of swelling (combined total paw volume) ([4]; 40 mg/kg ip at -30 min and +2 hr relative to carrageenan, measured 3 hours post-injection): 26%
14 | CCCCOc1ccc(C(CC)NC(=O)Oc2ccc3ncccc3c2)cc1 (centres unmarked) [Example 125, [1-(4-Butoxy-phenyl)-propyl]-carbamic acid quinolin-6-yl ester] | 7.00 to 8.00 | melting point: 115 to 118 °C
15 | O=C(Nc1ccc(Oc2ccccn2)cc1)O/N=C/c1cccnc1 [Example 147, 3-Pyridinecarboxaldehyde, O-[[[4-[(2-pyridinyl)oxy]phenyl]amino]carbonyl]oxime] | 6.30 to 7.00 | 
16 | O=C(Nc1ccc(Oc2cccnc2)cc1)O/N=C/c1ccccc1 [Example 151, Benzaldehyde, O-[[[4-[(3-pyridinyl)oxy]phenyl]amino]carbonyl]oxime] | > 8.00 | 
17 | CCCCOc1ccc(NC(=O)O/N=C(/C)Cl)cc1 [Example 155, (1Z)-N-[[[(4-butoxyphenyl)amino]carbonyl]oxy]ethanimidoyl chloride] | > 8.00 | 
